# From patent publication US20260034094A1, “COMPOSITIONS AND METHODS FOR INDUCING FERROPTOSIS” (Kojin Therapeutics, Inc., priority 2022, published 2026)
# Values joined by “and” are separate entries in the source; they are usually repeats but may differ in a detail not shown here. Equal entries are not always repeated. Where two headings read alike, the source gives them in different places.
# What was measured:
# RKN cells = experiment: RKN cell profiling assay (cell viability, CellTiter-Glo); format: cell-based; conditions: read-out: Cell Killing EC50
# How it was run: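 Cells seeded at 1,000/well in F-12 with 10% FBS, left to adhere 24 h, then compound-treated for 96 h at 0.5% final DMSO. Viability by CellTiter-Glo luminescence; EC50 from four-parameter logistic fit. Ferroptosis rescue runs included 1.5 μM ferrostatin-1 added at seeding.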
# human recombinant GCL = human recombinant GCL (Homo sapiens (Human), UniProt P48506); experiment: GCL enzyme profiling assay (ADP-Glo luminescence); format: biochemical
# human recombinant GCL, sequence (P48506 whole entry): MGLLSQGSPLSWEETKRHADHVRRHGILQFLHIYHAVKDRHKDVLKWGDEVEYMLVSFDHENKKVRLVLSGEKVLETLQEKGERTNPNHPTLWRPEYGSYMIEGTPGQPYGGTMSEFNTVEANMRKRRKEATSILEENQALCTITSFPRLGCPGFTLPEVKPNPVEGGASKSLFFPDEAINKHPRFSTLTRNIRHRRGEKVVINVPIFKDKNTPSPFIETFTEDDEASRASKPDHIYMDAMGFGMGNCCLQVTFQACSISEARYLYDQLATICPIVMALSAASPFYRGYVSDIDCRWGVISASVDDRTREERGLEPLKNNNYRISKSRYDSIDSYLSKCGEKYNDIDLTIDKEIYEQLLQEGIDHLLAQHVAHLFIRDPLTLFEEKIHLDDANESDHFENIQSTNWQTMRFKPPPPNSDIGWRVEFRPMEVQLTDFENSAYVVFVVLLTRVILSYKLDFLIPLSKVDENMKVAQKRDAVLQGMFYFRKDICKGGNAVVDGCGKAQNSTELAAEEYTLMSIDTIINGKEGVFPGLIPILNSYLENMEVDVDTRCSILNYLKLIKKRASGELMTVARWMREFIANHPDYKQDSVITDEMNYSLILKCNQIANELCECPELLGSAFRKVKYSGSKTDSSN
# How it was run: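 ADP-Glo luminescence readout; 5 nM enzyme preincubated 1 h at 22 °C with 0.6 mM ATP, then started with 1 mM glutamate and 1.2 mM α-aminobutyrate, stopped after 2 h. Buffer: HEPES pH 7.5, MgCl2, DTT, BSA, 0.2% F-127, 1% DMSO. IC50 from four-parameter logistic fit.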
# [1] = human recombinant GCL 5 nM, 1 h preincubation with ATP, read-out: GCL IC50
# [2] = human recombinant GCL, ADP-Glo, read-out: GCL IC50
Compound,IC50 (human recombinant GCL; [1]),IC50 (human recombinant GCL; [2]),"EC50 (RKN cells; 96 h, 96 h exposure)",EC50 (RKN cells; cell viability),other results
N=S(=O)(CC[C@H](N)C(=O)O)CCC1(C(=O)N2CCCC2)CCC1 (stereo partly shown) [Compound 194],0.02 to 2 mM,–,≥ 1000 µM,–,–
COCCCS(=N)(=O)CC[C@H](N)C(=O)OC (stereo partly shown) [Compound 75],> 2 mM and 0.02 to 2 mM,–,≥ 1000 µM,–,"IC50 (human recombinant GCL; human recombinant GCL 5 nM, 1 h preincubation with ATP, read-out: GCL IC50 (mM), individual values in parentheses): 2.35 mM and 0.594 mM"
"N=S(=O)(CC[C@H](N)C(=O)O)CCC(O)(c1ccc(C2CCCC2)cn1)C(F)(F)F (stereo partly drawn) [Compound 461, (2S)-2-amino-4-(3-(5-cyclopentylpyridin-2-yl)-4,4,4-trifluoro-3-hydroxybutylsulfonimidoyl)butanoic acid]",–,≤ 0.02 mM,–,< 1000 µM,–
N=S(=O)(CCCC(F)(F)F)CC[C@H](N)C(=O)Nc1ccccc1 (stereo partly shown) [Compound 132],> 2 mM,–,< 1000 µM,–,–
N=S(=O)(CC[C@H](N)C(=O)O)CCC(O)(c1ccc(-c2ccc(Cl)cc2Cl)cc1F)C(F)(F)F (stereo partly shown) [Compound 450],–,≤ 0.02 mM,–,< 1000 µM,–
"N=S(=O)(CC[C@H](N)C(=O)O)CCC1(c2cccc(F)c2)CCC1 (stereo partly drawn) [Compound 385, (2S)-2-amino-4-[2-[1-(3-fluorophenyl)cyclobutyl]ethylsulfonimidoyl]butanoic acid]",–,0.02 to 2 mM,–,< 1000 µM,–
N=S(=O)(CCCC(F)(F)F)CC[C@H](N)C(=O)OCc1ccccc1 (stereo partly shown) [Compound 86],0.02 to 2 mM,–,< 1000 µM,–,–
"CCCCNC(=O)[C@@H](N)CCS(=N)(=O)CCC(C)(C)C (stereo partly drawn) [Compound 100, (2S)-2-amino-N-butyl-4-(3,3-dimethylbutylsulfonimidoyl)butanamide]",> 2 mM,–,< 1000 µM,–,–
"CC(C)(CCS(=N)(=O)CC[C@H](N)C(=O)O)n1cc(-c2ccccc2)nn1 (stereo partly drawn) [Compound 207, (2S)-2-amino-4-(3-methyl-3-(4-phenyl-1H-1,2,3-triazol-1-yl)butylsulfonimidoyl)butanoic acid]",0.02 to 2 mM,–,≥ 1000 µM,–,–
"COC(=O)[C@@H](N)CCS(=N)(=O)CCCc1ccccc1 (stereo partly drawn) [Compound 70, (2S)-methyl 2-amino-4-(3-phenylpropylsulfonimidoyl)butanoate]",0.02 to 2 mM,–,≥ 1000 µM,–,–
N=[S@@](=O)(CC[C@H](N)C(=O)O)CCC1(c2ccccn2)CCC1 [compound 388],–,0.02 to 2 mM,–,< 1000 µM,–
"N[C@@H](CCS(=O)(=O)CCC(O)(c1cc2ccccc2cn1)C(F)(F)F)C(=O)O (stereo partly drawn) [Compound 332, (2S)-2-amino-4-((4,4,4-trifluoro-3-hydroxy-3-(isoquinolin-3-yl)butyl)sulfonyl)butanoic acid]",–,0.02 to 2 mM,–,≥ 1000 µM,–
N=S(=O)(CC[C@H](N)C(=O)O)CCC1(c2ccccc2)CCC1 (stereo partly shown) [Compound 62],≤ 0.02 mM,–,< 1000 µM,–,–
N=S(=O)(CC[C@H](N)C(=O)O)CCC(O)(c1ncc(-c2ccccc2)[nH]1)C(F)(F)F (stereo partly shown) [Compound 358],–,≤ 0.02 mM,–,< 1000 µM,–

# More lines, main results first:
IC50 (human recombinant GCL; [1]),IC50 (human recombinant GCL; [2]),Compound,"EC50 (RKN cells; 96 h, 96 h exposure)",EC50 (RKN cells; cell viability),other results
≤ 0.02 mM,–,COC(CC[S@](=N)(=O)CC[C@H](N)C(=O)O)C(F)(F)F (stereo partly shown) [Compound 179],–,–,EC50 (RKN cells; 96 h exposure): < 1000 µM
–,> 2 mM,N[C@@H](CCS(=O)(=O)CCC(O)C(F)(F)F)C(=O)O (stereo partly shown) [compound 516],–,≥ 1000 µM,–
0.02 to 2 mM,–,CC(C)OC(=O)[C@@H](N)CCS(=N)(=O)CCCC(F)(F)F (stereo partly shown) [Compound 88],< 1000 µM,–,–
–,≤ 0.02 mM,"N=S(=O)(CC[C@H](N)C(=O)O)CC[C@H](O)C(F)(F)F (single isomer, unassigned) [Compound 326]",–,< 1000 µM,–
–,> 2 mM,"N=S(=O)(CC[C@H](N)C(=O)O)CC[C@H](O)C(F)(F)F (single isomer, unassigned) [Compound 327]",–,≥ 1000 µM,–
–,≤ 0.02 mM,COc1ccccc1C(CCS(=N)(=O)CC[C@H](N)C(=O)O)C(F)(F)F (stereo partly shown) [Compound 398],–,< 1000 µM,–
–,0.02 to 2 mM,N=S(=O)(CCC(C(N)=O)C(F)(F)F)CC[C@H](N)C(=O)O (stereo partly shown) [Compound 308],–,< 1000 µM,–
0.02 to 2 mM,–,COC(=O)C(C)(C)CCS(=N)(=O)CC[C@H](N)C(=O)O (stereo partly shown) [Compound 167],< 1000 µM,–,–
≤ 0.02 mM,–,N=[S@](=O)(CC[C@H](c1ccccc1)C(F)(F)F)CC[C@H](N)C(=O)O [Compound 60],< 1000 µM,–,–
–,≤ 0.02 mM,N=S(=O)(CCC(c1ccc(-c2cc(F)ccc2Cl)cc1)C(F)(F)F)CC[C@H](N)C(=O)O (stereo partly shown) [Compound 238],–,< 1000 µM,–
–,0.02 to 2 mM,C#CC(C)(C)CCS(=N)(=O)CC[C@H](N)C(=O)O (stereo partly shown) [Compound 299],–,< 1000 µM,–
–,≤ 0.02 mM,N=S(=O)(CC[C@H](N)C(=O)O)CCC(O)(c1nsc2ccccc12)C(F)(F)F (stereo partly shown) [Compound 375],–,< 1000 µM,–
≤ 0.02 mM,–,"N=S(=O)(CCC(c1ccc(-c2ccccc2)cc1)C(F)(F)F)CC[C@H](N)C(=O)O (stereo partly drawn) [Compound 211, (2S)-4-(3-([1,1′-biphenyl]-4-yl)-4,4,4-trifluorobutylsulfonimidoyl)-2-aminobutanoic acid]",< 1000 µM,–,–
